In article PMC10732398 (PLOS Pathogens, 2023):

Tests used:
[1] = tested on: ⍺4β7; test: SPR: inhibition by linear peptides of soluble ⍺4β7 binding to a CD4 D1D2 coated surface; conditions: SPR peptide scan (Fig 4A); ⍺4β7 pre-incubated with peptide 2 hours at room temperature; 1 mM MnCl2
Text: We next modified our SPR -based assay in order to map the site(s) on CD4 that interacts with ⍺4β7. In this modified assay ⍺4β7 was passed over a surface coated with CD4 D1D2 in the absence or presence of 42 overlapping 15 amino acid linear peptides spanning CD4 residues 1–178 (S2 Table). Two peptides located in CD4 D1, #7 and #9, inhibited ⍺4β7 binding by ~17% (Fig 4A). The final peptide in CD4 D2, p42, inhibited binding by ~ 66%. Linear peptides often lack the true conformation of the protein from which they are derived. Additionally, the kinetic format of our assay allows for ligand-analyte rebinding during the association phase. These features render this inhibition assay somewhat insensitive. Nevertheless, the dynamic range of this assay is sufficient to identify interactions that are worthy of follow-up investigation (S4 Fig). As such, our preliminary findings raised the possibility that both D1 and D2 domains of CD4 interact with ⍺4β7. Of note, MAdCAM-1 and VCAM-1, like CD4, present two tandemly arrayed N-terminal IgSF domains (Fig 4B). In both cases, binding to ⍺4β7 is mediated by a 1° binding site in their D1s and an accessory site, located in their D2s. The term accessory is a misnomer insofar as these sites plays an essential role in ⍺4β7 binding. Follow-up experiments focused on p9 and p42, which we herein refer to as pCD4^33-47 and pCD4^165-178. pCD4^33-47 partially overlaps the D1 C’C” β-strands and a connecting loop. The primary gp120 contact site (Phe^43) lies at the N-terminal edge of this loop (Fig 4C). pCD4^165-178 includes Q^165 and K^166. These residues lie primarily within the G β-strand of D2, close to the boundary with D3. Because peptide inhibition assays sometime mediate nonspecific effects, further analysis was performed to better establish the role of these two regions of CD4 in binding to ⍺4β7.
To determine if this is the case, we employed an SPR -based assay. Biosensor surfaces were coated with either CD4 D1D2 or a 42 aa cyclic V2 peptide derived from the subtype E 92TH023 gp120 (cV2 92TH023). A third surface coated with MAdCAM-Ig was employed as a positive control. Soluble ⍺4β7 was passed over these surfaces. We then evaluated the capacity of staggered 15 aa peptides that span either CD4 D2 or gp120 V2 to inhibit this interaction (Fig 7A).
Experiments were performed using a Biacore 3000 instrument (Cytiva Life Sciences) using CM4 or CM5 sensor chips. The data were evaluated using BIAevaluation 4.1.1 software (Cytiva Life Sciences). The chip surface was activated by injecting 35 μl of a 1:1 mixture of 0.05 M N-hydroxysuccinimide and 0.2 M N-ethyl-N-(dimethylaminopropyl) carbodiimide at 5 μl/min. NeutrAvidin, HIV gp120, sCD4 (D1D2) or Hu-MAdCAM-Ig (R&D Systems) at concentrations of 5 μg/ml in 10mM NaOAc, pH 4.5, were immobilized to 250–750 resonance units (RU). After the proteins were immobilized to the desired densities, unreacted sites were blocked with 35 μl of 1 M Tris-HCl (pH 8.0). Biotinylated cyclic V2 peptides (1 μg/ml in 20 mM Tris-HCl, pH 8.0) were bound to the NeutrAvidin surfaces to densities of approximately 250–300 RU. One surface was activated and blocked without ligand as a control surface for non-specific binding. Signal from the control surface was subsequently subtracted. Running buffer was HBS (pH 7.4), 1 mM MnCl2, 0.005% Tween- 20, 0.05% soluble carboxymethyl-dextran. Binding experiments were carried out at a flow rate of 25 μl/min at 25°C. After a 2 min injection, the surface was washed for an additional 2 min in running buffer allowing dissociation of the bound ligand from the surface. The surfaces were regenerated by multiple injections of 4.5 M MgCl2 at a flow rate of 100 μl/min. Inhibition of ⍺4β7 binding by linear V2-loop and CD4 derived peptides was carried out by pre-incubating ⍺4β7 with the peptides in running buffer at the indicated concentrations for 2 hours at room temperature prior to passing them over the prepared surfaces as described above. […]

[2] = tested on: ⍺4β7 on primary CD8^+ T cells; test: Flow cytometry: FAM-conjugated pCD4^165-178 binding to RA-treated primary CD8^+ T cells; parameters: species or system human; conditions: FAM-Ttds-labelled peptide 1.25 μg/200,000 cells in 100 μl; presence or absence of Mn^++
Text: To further investigate the interaction between pCD4^165-178 and ⍺4β7 we attached a fluorescein dye to its amino terminus via a trioxatridecan-succinamic acid (Ttds) linker (Fig 5A). A scrambled pCD4^165-178 was employed as a control. […] FIB504 and vedolizumab inhibited binding by ~50%. This inhibition pattern resembles the one we obtained when inhibiting D1D2-Ig⍺tp with the same antagonists (Fig 3). We conclude that the CD4 D2 G β-strand binds directly to the headpiece region of ⍺4β7 in a cation dependent manner. Support for this conclusion, in the form of site directed mutagenesis within the D2 G β-strand is provided below.
Fig 5 Direct binding of pCD4^165-178 to ⍺4β7 on primary T cells. (A) Sequence of FAM -conjugated pCD4^165-178 and a scrambled derivative (FAM-scr pCD4^165-178). (B) Flow-cytometry derived histogram of pCD4^165-178 binding to RA -cultured CD8^+ T cells. pCD4^165-178 in the presence (green), or absence of Mn^++(black). Unstained cells are shown (grey). (C) Binding of pCD4^165-178 and its scrambled derivative to CD8^+ T cells in the presence of MnCl2 as in panel B, and in the presence of ⍺4 and ⍺4β7 antagonists, as indicated. Y-axis indicates % cells bound. Error bars represent standard error from 3 independent experiments.
Cells were stained with fluoresceine conjugated mAbs or recombinant proteins using standard procedures preceded by Fc receptor blocking with human IgG. Buffers used were 10 mM HEPES 150 mM NaCl (HBS Buffer) with 100 μM CaCl2. 1 mM MnCl2 was also included, unless otherwise specified. Buffer without divalent cations included 0.1 mM EDTA. Unlabeled mAb or protein inhibitors were preincubated with cells or proteins at a 5X molar excess for 15 min on ice. FAM labeled peptides were used at 1.25 μg/ 200,000 cells in a 100 μl volume. Data were acquired using a FACSCanto II (BD Biosciences) and analyzed with FlowJo software (BD Biosciences). Plotted MFI values represent absolute values.

QKKVEFKIDIVVLA [CD4 P42, linear CD4 D2 peptide, residues 165-178, G β-strand]
inhibition of ⍺4β7 binding to CD4 D1D2 coated surface [1]: ~ 66%
binding of FAM-labelled peptide to RA-treated CD8^+ T cells (in words) [2]: reacted strongly in the presence, but not in the absence of Mn^++
